Data on five compounds can be found in article PMC7011086 (Frontiers in Pharmacology, 2020).

Data set [1] concerns washed platelets. The data set can be described thus: Washed platelet aggregation (myricetin, gallic acid). To be noted: for inhibition of platelet aggregation (in words): 75-300 μM; for inhibition at 30 µM: Homo sapiens, Platelet. The format is cell-based, human. The method, then: Whole blood was centrifuged at 250 × g for 10 min at 22°C to obtain PRP. To obtain washed platelets (WP), PRP was centrifuged twice (1,000 × g, 10 min, 20°C) in the presence of 1.25 μg/ml prostacyclin. The final platelet pellet was resuspended in modified Tyrode's-HEPES buffer, (20 mM N-2-hydroxyethylpiperazine-N'-2-ethanesulfonic acid, 5 mM glucose, 134 mM NaCl, 0.34 mM Na2HPO4, 2.9 mM KCl, 12 mM NaHCO3, and 1 mM MgCl2, pH 7.3) and rested for 30 min at 30°C before experiments. All protocols using human blood samples were approved by the Research Ethics Committees of the Federal University of […] and the University of Reading. PRP and WP aggregation assays were performed in a four-channel aggregometer (Helena Biosciences, […], England). […] Aggregation traces from at least three different donors were recorded for 5 min.

Data set [2] has as its system washed platelets. The data set can be described thus: Flow cytometry: fibrinogen binding and P-selectin exposure. The format is cell-based, human. The method, then:
Whole blood was centrifuged at 250 × g for 10 min at 22°C to obtain PRP. To obtain washed platelets (WP), PRP was centrifuged twice (1,000 × g, 10 min, 20°C) in the presence of 1.25 μg/ml prostacyclin. The final platelet pellet was resuspended in modified Tyrode's-HEPES buffer, (20 mM N-2-hydroxyethylpiperazine-N'-2-ethanesulfonic acid, 5 mM glucose, 134 mM NaCl, 0.34 mM Na2HPO4, 2.9 mM KCl, 12 mM NaHCO3, and 1 mM MgCl2, pH 7.3) and rested for 30 min at 30°C before experiments. All protocols using human blood samples were approved by the Research Ethics Committees of the Federal University of […] and the University of Reading. WP (2-3 × 10^8 platelets/ml) were incubated with PESc at the same concentrations and conditions used for platelet aggregation experiments. Then WP were incubated for 10 min with thrombin (0.02 U/ml). FITC-conjugated PAC-1 antibody was added for 10 min in the dark and fluorescence read using a flow cytometer FACS Calibur (BD Biosciences, Franklin Lakes, USA). […] FITC-conjugated fibrinogen and PE/Cy5-conjugated anti-human CD62P were incubated for 30 min, then platelets were read after a 25-fold dilution with Tyrodes-HEPES buffer.
For orientation: In flow cytometry, cells or beads pass a laser one at a time.

The subject of data set [3] is washed platelets. The data set can be described thus: Platelet spreading on collagen or fibrinogen. The format is cell-based, human. The method, then: Non-adhered platelets were removed and the coverslip washed three times with PBS. Adhered platelets were fixed using 0.2% paraformaldehyde for 10 min. This solution was then removed and coverslips washed three times with PBS before the addition of 0.1% (v/v) Triton-X to permeabilize the cells. […] Coverslips were mounted onto microscope glass slides and imaged using a 100× oil immersion lens on a Nikon A1-R Confocal microscope.

The target of data set [4] is T1, recombinant PDI (Homo sapiens, UniProt P07237). To be noted: Kq=KSV/τ0, τ0 10^-8 s.
T1 sequence (P07237 18-508): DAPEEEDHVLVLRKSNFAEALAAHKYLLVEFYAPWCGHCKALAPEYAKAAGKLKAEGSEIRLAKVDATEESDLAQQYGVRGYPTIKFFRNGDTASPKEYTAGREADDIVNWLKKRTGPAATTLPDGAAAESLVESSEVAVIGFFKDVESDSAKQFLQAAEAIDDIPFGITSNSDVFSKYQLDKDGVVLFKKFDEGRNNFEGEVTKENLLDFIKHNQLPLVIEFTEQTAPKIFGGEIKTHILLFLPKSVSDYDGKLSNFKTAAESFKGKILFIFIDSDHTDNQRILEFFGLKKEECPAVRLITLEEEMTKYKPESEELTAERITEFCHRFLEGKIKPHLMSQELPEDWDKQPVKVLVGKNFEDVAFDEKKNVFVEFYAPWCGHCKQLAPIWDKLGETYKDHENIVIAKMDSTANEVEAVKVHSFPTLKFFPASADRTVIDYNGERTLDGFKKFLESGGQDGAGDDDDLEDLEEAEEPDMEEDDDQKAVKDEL
The subject of the next data set is VASP (Ser239). The data set can be described thus: VASP (Ser239) phosphorylation immunoblotting. The class given is cell-based, human. To be noted: resting washed platelets, 7.5, 15 and 30 μM, 10 min. The method, then:
After protein separation, semi-dry transfer was performed at 15V for 2 h using a BioRad Trans-blot semidry blotter. Membranes were blocked with 5% bovine serum albumin (BSA) for 1 h and incubated with primary antibodies against VASP ([…]) or GAPDH at 1:1,000 v/v dilution overnight. After washing the primary antibody off, […] secondary antibody was incubated for 1 h at room temperature at 1:4,000 v/v dilution. Membranes were visualized using a Typhoon imaging system (GE Healthcare, Hatfield, UK).

Data set [5] has as its target T2, recombinant ERp5 (Homo sapiens, UniProt Q15084).
T2 sequence (Q15084 20-440): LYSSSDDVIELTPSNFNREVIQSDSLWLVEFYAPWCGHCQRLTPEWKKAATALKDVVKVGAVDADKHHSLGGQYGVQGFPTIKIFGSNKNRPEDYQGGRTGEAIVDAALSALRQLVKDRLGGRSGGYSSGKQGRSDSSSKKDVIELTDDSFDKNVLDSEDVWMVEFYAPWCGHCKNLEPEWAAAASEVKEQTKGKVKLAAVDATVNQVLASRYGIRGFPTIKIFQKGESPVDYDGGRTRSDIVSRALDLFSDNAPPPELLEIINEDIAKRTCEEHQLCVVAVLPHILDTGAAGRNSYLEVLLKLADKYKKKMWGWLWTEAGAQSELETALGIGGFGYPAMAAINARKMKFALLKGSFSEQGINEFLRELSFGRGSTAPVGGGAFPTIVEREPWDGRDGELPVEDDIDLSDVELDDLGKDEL
To be noted: ERp5 2 µM, myricetin 0.01–10 µM, Mean ± SEM.

In another data set the target is T3, recombinant ERp72 (Homo sapiens, UniProt P13667).
T3 sequence (P13667 21-645): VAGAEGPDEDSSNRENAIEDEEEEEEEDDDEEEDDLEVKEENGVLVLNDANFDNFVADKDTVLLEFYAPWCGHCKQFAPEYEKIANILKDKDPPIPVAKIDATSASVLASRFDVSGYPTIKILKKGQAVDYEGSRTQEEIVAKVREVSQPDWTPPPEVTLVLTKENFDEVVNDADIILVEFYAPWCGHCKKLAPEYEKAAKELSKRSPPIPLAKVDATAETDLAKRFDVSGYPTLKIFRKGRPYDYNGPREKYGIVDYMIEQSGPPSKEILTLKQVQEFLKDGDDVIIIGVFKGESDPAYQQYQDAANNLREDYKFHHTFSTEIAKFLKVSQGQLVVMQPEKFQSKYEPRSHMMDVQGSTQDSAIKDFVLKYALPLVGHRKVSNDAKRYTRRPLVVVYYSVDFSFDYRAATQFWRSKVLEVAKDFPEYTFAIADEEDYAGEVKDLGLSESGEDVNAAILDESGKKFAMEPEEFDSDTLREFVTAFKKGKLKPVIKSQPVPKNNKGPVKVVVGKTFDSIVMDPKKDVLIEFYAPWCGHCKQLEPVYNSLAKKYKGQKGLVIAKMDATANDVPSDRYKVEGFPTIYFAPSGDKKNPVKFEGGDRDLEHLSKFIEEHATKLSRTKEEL
The data set can be described thus: Protein fluorescence quenching, ERp72. The class given is binding.

For data set [6], the system named is whole blood on collagen-coated Vena8 bio-chips. The data set can be described thus: Thrombus formation under flow. The class given is cell-based, human. To be noted: 30 µM, shear rate 45 dyn/cm^2, 10 min. The method, then: Fluorescence intensity was calculated using NIS Elements Software (Nikon, Tokyo, Japan).
The target of data set [7] is T1, recombinant PDI. The data set can be described thus: biochemical.
Data set [8] deals with T2, recombinant ERp5. The data set can be described thus: biochemical.
Data set [9] has as its target T1, recombinant PDI. The data set can be described thus: Reductase activity (Di-E-GssG), PDI. The format is biochemical. To be noted: PDI 2 µM, myricetin 0.01–10 µM, Di-E-GssG probe.
A further data set addresses T4, recombinant ERp57 (Homo sapiens, UniProt P30101).
T4 sequence (P30101 25-505): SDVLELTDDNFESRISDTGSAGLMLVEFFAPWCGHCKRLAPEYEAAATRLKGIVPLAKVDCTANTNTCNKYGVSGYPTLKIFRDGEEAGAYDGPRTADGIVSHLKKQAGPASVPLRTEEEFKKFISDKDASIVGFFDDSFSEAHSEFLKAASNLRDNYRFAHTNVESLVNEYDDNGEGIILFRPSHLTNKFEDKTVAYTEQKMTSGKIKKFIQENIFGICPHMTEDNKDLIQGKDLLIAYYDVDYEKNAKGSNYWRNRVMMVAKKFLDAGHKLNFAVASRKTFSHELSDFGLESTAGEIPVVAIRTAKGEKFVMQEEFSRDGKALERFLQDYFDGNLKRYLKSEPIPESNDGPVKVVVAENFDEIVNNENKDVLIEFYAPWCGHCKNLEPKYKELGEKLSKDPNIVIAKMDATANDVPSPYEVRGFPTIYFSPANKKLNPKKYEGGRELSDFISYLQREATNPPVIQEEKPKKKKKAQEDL
The data set can be described thus: biochemical.

On the set-up of data set [10]: method as in Dang et al., 2014. To be noted: rats, single oral dose of 100 mg/kg; ref Dang et al., 2014; cited from earlier work.
The target of data set [11] is T2, recombinant ERp5. The data set can be described thus: Reductase activity (Di-E-GssG), ERp5. The format is biochemical. To be noted: ERp5 2 µM, myricetin 0.01–10 µM, Di-E-GssG probe.
A further data set relates to PDI. To be noted: insulin turbidimetry, cited from earlier work; for inhibition of PDI (in words): ref Jasuja et al., 2012.

For the compound `O=C(O)c1cc(O)c(O)c(O)c1` [Gallic acid, gallic acid], the “inhibition of platelet aggregation (in words)” value is “unable to inhibit platelet aggregation, except at the higher concentration used (300 μM)” in the data set on washed platelets [1] (TRAP-6-induced) and “unable to inhibit platelet aggregation” with washed platelets [1] (collagen-induced). Further, the “fibrinogen binding (in words)” value with washed platelets [2] (CRP-activated washed platelets, 150 μM) is reported as “only able to reduce fibrinogen binding when incubated at 150 μM”.

Broadly, the inhibition is the drop in the measured response relative to a control, in per cent. With `O=c1c(O)c(-c2cc(O)c(O)c(O)c2)oc2cc(O)cc(O)c12` [Myricetin], the inhibition at 30 µM in the data set on washed platelets [3] (Homo sapiens, Platelet, collagen-coated coverslips, 30 μM) was around 25%; in the data set with washed platelets [1] (TRAP-6-induced), around 60%; in the data set on washed platelets [1] (collagen-induced) it was around 80%. Further, the “platelet spreading (in words)” value with washed platelets [3] (fibrinogen-coated coverslips, 7.5-30 μM) is given as “no effect”. Further, the “Kq (quenching rate constant)” value was found to be 2.12e+12 M⁻¹ s⁻¹ on recombinant PDI [4] and 2.75e+12 M⁻¹ s⁻¹ at recombinant ERp72 (ERp72, Kq=KSV/τ0, τ0 10^-8 s). Moreover, in the data set on VASP (Ser239), the “VASP phosphorylation (in words)” value is “did not induce VASP phosphorylation”. For the same compound, the “K SV (Stern-Volmer constant)” value on recombinant ERp5 [5] was 48,750 ± 9,554 M^-1; on recombinant ERp72 (ERp72 2 µM, myricetin 0.01–10 µM, Mean ± SEM), 27,515 ± 5,675 M^-1. The “K b (binding constant)” value at recombinant ERp72 (ERp72, determined for highest concentration tested) was 394000 M⁻¹. Besides, the Kd on recombinant ERp72 (read-out: K d (dissociation constant)) amounted to 2530 nM; on recombinant PDI [7] it was 4260 nM; on recombinant ERp5 [8], 1740 nM; on recombinant ERp57 it was 1830 nM. The “thrombus formation (fluorescence intensity) (in words)” value in data set [6] was “decreased thrombus formation”. The “fibrinogen binding (in words)” value in the data set with washed platelets [2] (CRP-activated washed platelets, 15 μM) is “abolish”; with washed platelets [2] (TRAP-6-activated washed platelets), “still inhibited fibrinogen binding”. The “inhibition of reductase activity (in words)” value is “inhibit both PDI and ERp5, being more potent against PDI” at recombinant PDI [9]; “inhibit both PDI and ERp5” on recombinant ERp5 [11]. Also, the peak plasma concentration in [10] is 10 µM.

As for `O=c1c(O)c(-c2ccc(O)c(O)c2)oc2cc(O)cc(O)c12` [Quercetin, quercetin], in the data set with PDI, the “inhibition of PDI (in words)” value is reported as “weak inhibitor of PDI”.

As for `O=c1c(O[C@@H]2O[C@H](CO)[C@@H](O)[C@H](O)[C@H]2O)c(-c2ccc(O)c(O)c2)oc2cc(O)cc(O)c12` [isoquercetin], in the data set on PDI (ref Stopa et al., 2017), the “inhibition of PDI reductase activity (in words)” value is given as “potent inhibitors of PDI reductase activity”.

Regarding `C[C@@H]1O[C@@H](OC[C@H]2O[C@@H](Oc3c(-c4ccc(O)c(O)c4)oc4cc(O)cc(O)c4c3=O)[C@H](O)[C@@H](O)[C@@H]2O)[C@H](O)[C@H](O)[C@H]1O` [rutin], the “inhibition of PDI (in words)” value with PDI is reported as “potent inhibitors of PDI reductase activity”.
